Source: US11655235B2, “Pyrrolidine and piperidine compounds” (YUHAN CORPORATION, priority 2019, dated 2023)
Like-named read-outs stand apart in the source and are kept apart here.

Legend:
Type in all cases: biochemical
[1] = target: T1, recombinant human DPP7 (Homo sapiens, UniProt Q9UHL4); assay: DPP7 inhibition, fluorogenic substrate Lys-Pro-AMC
T1 construct: purchased R&D Systems
Method in brief: (§1)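 Enzyme per reaction: 50 ng DPP9, 20 ng DPP8, 10 ng each DPP7 and PREP. Compounds were serially diluted (8 points, up to 0.5% DMSO) and incubated at 25 °C.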

[2] = target: T2, Recombinant human FAP (Homo sapiens, UniProt Q12884); assay: FAP inhibition, fluorogenic substrate Z-Gly-Pro-AMC
T2 construct: purchased R&D systems
T2 sequence (Q12884 1-760): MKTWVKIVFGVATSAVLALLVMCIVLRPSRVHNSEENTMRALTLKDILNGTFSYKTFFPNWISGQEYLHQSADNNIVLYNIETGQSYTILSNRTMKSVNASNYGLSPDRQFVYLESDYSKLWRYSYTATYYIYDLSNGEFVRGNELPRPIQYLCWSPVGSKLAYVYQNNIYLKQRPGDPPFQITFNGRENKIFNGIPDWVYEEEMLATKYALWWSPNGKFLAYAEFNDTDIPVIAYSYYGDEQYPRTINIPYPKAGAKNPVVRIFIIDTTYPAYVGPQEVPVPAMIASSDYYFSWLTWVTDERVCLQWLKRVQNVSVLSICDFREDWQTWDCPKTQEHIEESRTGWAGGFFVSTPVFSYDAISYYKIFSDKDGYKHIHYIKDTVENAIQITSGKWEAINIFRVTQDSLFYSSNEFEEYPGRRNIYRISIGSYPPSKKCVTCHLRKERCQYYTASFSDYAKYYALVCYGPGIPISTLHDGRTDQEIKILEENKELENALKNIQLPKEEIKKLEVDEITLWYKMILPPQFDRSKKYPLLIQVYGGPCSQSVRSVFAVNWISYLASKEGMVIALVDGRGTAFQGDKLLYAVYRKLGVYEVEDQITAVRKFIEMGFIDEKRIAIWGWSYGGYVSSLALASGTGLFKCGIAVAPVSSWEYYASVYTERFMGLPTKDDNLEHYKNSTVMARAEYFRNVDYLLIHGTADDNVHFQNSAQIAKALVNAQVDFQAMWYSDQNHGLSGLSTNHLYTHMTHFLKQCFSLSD
Method in brief: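 Recombinant human FAP, 10 ng per reaction, in 50 mM Tris pH 7.5 with 1 M NaCl and 1 mg/ml BSA at 25° C; substrate Z-Gly-Pro-AMC, ≤0.1% DMSO. AMC fluorescence read at ex 380/em 460 nm; % signal-rate decrease vs no-inhibitor control, 8-point curves fitted to a four-parameter logistic for IC50.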

[3] = target: T3, recombinant human DPP9 (Homo sapiens, UniProt Q86TI2); assay: DPP9 inhibition, fluorogenic substrate H-Gly-Pro-AMC
T3 construct: purchased R&D Systems
Method in brief: as §1

[4] = target: T4, recombinant human PREP (Homo sapiens, UniProt P48147); assay: PREP inhibition, fluorogenic substrate Z-Gly-Pro-AMC; conditions: Inhibitory Activity (IC50, nM) PREP
T4 construct: purchased R&D System
T4 sequence (P48147 1-710): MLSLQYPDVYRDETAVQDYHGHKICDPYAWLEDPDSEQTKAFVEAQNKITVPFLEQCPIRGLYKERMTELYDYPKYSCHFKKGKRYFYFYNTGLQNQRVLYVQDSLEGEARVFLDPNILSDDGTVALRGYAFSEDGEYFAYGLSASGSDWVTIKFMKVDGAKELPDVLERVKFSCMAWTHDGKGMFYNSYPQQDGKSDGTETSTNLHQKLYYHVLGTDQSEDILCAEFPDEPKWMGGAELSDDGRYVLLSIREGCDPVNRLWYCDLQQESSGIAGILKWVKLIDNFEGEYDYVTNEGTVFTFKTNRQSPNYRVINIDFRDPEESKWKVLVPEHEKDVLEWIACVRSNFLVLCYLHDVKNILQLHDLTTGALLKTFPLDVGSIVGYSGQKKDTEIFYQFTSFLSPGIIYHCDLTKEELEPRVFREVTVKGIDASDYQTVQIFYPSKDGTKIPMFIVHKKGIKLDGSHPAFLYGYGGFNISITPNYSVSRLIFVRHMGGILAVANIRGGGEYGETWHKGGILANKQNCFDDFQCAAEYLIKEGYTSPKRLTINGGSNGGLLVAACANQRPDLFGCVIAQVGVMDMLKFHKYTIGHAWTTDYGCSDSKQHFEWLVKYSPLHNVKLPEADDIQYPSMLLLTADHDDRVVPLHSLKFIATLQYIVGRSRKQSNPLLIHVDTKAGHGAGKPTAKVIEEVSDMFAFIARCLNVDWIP
Method in brief: as §1

[5] = target: T5, recombinant human DPP8 (Homo sapiens, UniProt Q6V1X1); assay: DPP8 inhibition, fluorogenic substrate Z-Ala-Pro-AMC
T5 construct: purchased PBS Bioscience
Protocol: The compounds according to the present technology were evaluated in terms of the inhibitory effect on the activity of dipeptidyl peptidases including FAP by using a substrate producing fluorescent substances upon enzymatic decomposition. The test was conducted at 25° C. to get a final reaction volume of 100 μL in a 96 black well plate. […] Briefly, the test compounds were dissolved in dimethyl sulfoxide (DMSO) at a concentration of 20 mM and then subjected to serial dilution, thereby creating an 8 point curve. As for the control group, a 6 point curve created by serial dilution of Talabostat in the same buffer solution was used. Fluorescence intensity was measured using a microplate reader (Flexstation3, Molecular Devices) under the wavelength condition exciting at 380 nm and reading the emission at 460 nm. The inhibitory effect of the test compounds was measured as a decrease (%) in the signal rate as compared to the control group without any inhibitor. Data was fixed to a logistic model with four variables and IC50 value was calculated using GraphPad Prism program. As for recombinant human DPP4 (R&D Systems), 25 mM tris (pH 8.0) buffer as a buffer solution and H-Gly-Pro-AMC (Bachem) as a substrate were used. As for recombinant human DPP7 (R&D Systems), 25 mM MES (pH 6.0) buffer as a buffer solution and Lys-Pro-AMC (Bachem) as a substrate were used. As for recombinant human DPP8 (PBS Bioscience), as a buffer solution, a 10 mM tris (pH 7.4) buffer comprising 10 mM of magnesium chloride and 0.05% of Tween 20, and Z-Ala-Pro-AMC (BPS Bioscience) as a substrate were used. As for recombinant human DPP9 (R&D Systems), a 25 mM tris (pH 8.0) buffer as a buffer solution and H-Gly-Pro-AMC (Bachem) as a substrate were used. As for recombinant human PREP (R&D System), as a buffer solution, a 25 mM tris (pH 7.5) buffer comprising 250 mM sodium chloride and 2.5 mM DTT (Dithiolthreitol), and Z-Gly-Pro-AMC (Bachem) as a substrate were used. The evaluation was made by using 10 ng of DPP4, PDD7, and PREP, 20 ng of DPP8, and 50 ng of DPP9 based on the final reaction. In the evaluation of DPP4, the test compounds were subjected to serial dilution in a buffer under the condition containing up to 0.1% of DMSO. In the evaluation of DPP7, DPP8, DPP9, and PREP, the test compounds were subjected to serial dilution in each buffer under the condition containing up to 0.5% of DMSO.

[6] = 25° C., Z-Gly-Pro-AMC substrate
[7] = 25° C., H-Gly-Pro-AMC substrate
[8] = 25° C., Z-Ala-Pro-AMC substrate

T5 sequence (Q6V1X1 whole entry): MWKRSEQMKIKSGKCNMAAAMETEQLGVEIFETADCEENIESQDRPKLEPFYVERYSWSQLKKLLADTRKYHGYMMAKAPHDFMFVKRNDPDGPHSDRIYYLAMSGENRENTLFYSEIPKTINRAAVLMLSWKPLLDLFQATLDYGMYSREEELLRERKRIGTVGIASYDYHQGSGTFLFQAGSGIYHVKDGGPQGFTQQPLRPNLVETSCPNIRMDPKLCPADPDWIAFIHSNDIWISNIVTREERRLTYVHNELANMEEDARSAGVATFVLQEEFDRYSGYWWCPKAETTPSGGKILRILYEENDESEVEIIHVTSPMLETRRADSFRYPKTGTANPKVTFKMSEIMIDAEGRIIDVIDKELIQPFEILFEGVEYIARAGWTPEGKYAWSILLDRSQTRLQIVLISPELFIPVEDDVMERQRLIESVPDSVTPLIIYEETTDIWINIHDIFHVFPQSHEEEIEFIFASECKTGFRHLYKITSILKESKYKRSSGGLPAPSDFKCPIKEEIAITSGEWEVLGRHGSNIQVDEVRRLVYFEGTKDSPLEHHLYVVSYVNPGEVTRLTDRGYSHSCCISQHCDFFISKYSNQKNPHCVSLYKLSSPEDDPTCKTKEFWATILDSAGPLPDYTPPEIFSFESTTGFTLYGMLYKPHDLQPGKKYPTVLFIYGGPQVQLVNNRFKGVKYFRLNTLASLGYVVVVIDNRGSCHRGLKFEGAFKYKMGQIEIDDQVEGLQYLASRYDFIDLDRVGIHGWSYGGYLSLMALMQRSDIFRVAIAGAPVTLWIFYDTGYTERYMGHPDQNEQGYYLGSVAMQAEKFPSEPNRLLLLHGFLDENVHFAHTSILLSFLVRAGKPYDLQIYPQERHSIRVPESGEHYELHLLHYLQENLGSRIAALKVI
T3 sequence (Q86TI2 whole entry): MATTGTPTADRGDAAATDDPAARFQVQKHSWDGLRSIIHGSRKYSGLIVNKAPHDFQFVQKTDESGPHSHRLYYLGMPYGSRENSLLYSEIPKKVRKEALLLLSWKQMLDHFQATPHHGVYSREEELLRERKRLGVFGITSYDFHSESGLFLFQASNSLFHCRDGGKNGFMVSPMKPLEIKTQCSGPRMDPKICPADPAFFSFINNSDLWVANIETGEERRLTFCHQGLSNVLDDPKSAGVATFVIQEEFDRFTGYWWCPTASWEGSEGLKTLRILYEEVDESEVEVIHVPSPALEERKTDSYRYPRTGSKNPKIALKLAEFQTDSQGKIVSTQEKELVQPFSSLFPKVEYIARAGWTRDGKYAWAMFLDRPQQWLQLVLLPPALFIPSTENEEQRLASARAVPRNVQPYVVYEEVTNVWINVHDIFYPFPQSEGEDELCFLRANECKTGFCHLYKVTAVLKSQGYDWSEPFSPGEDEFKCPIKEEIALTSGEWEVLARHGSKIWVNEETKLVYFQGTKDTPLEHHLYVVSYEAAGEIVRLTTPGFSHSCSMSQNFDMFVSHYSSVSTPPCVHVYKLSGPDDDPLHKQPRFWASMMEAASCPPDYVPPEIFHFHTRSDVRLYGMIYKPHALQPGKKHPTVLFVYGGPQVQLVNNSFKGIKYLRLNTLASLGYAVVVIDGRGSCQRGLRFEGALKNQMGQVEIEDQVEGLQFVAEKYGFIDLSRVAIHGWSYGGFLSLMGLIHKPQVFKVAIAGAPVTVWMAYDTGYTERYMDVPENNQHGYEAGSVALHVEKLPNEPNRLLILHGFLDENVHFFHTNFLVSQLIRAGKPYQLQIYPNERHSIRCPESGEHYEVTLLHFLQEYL

Compound | IC50 [1] [µM] | IC50 [2, 6] [µM] | IC50 [3, 7] [µM] | IC50 [4, 6] [nM] | IC50 [5, 8] [µM] | IC50 ([1]; recombinant human DPP7) [µM] | IC50 ([2]; recombinant human FAP, substrate Z-Gly-Pro-AMC) [µM] | IC50 ([3]; recombinant human DPP9) [µM] | IC50 ([4]; recombinant human PREP) [nM] | IC50 ([5]; recombinant human DPP8) [µM]
Cc1c(N(C)[C@H]2CCN(CC(=O)N3CCC[C@H]3C#N)C2)cnc2ccccc12 [Example 149, (2S)-1-[2-[(3S)-3-[methyl-(4-methyl-3-quinolyl)amino]pyrrolidin-1-yl]acetyl]pyrrolidine-2-carbonitrile] | 3.97 | 0.0099 | 49.1 | 1620 | ≥ 100 | – | – | – | – | –
Cc1ccc2ncc(N(C)[C@H]3CCN(CC(=O)N4CCC[C@H]4C#N)C3)cc2c1 [Example 150, (2S)-1-[2-[(3S)-3-[methyl-(6-methyl-3-quinolyl)amino]pyrrolidin-1-yl]acetyl]pyrrolidine-2-carbonitrile] | 1.83 | 0.0011 | 39.6 | 2640 | ≥ 100 | – | – | – | – | –
CN(c1cnc2ccc(F)cc2c1)[C@H]1CCN(CC(=O)N2CCC[C@H]2C#N)C1 [Example 151, (S)-1-(2-((S)-3-((6-fluoroquinolin-3-yl)(methyl)amino)pyrrolidin-1-yl)acetyl)pyrrolidine-2-carbonitrile] | 2.55 | 0.0016 | 23.9 | 3090 | 12.3 | – | – | – | – | –
COc1ccc2ncc(N(C)[C@H]3CCN(CC(=O)N4CCC[C@H]4C#N)C3)cc2c1 [Example 152, (S)-1-(2-((S)-3-((6-methoxyquinolin-3-yl)(methyl)amino)pyrrolidin-1-yl)acetyl)pyrrolidine-2-carbonitrile] | 1.66 | 0.0025 | 29 | 4130 | ≥ 100 | – | – | – | – | –
COc1cccc2cc(N(C)[C@H]3CCN(CC(=O)N4CCC[C@H]4C#N)C3)cnc12 [Example 154, (S)-1-(2-((S)-3-((8-methoxyquinolin-3-yl)(methyl)amino)pyrrolidin-1-yl)acetyl)pyrrolidine-2-carbonitrile] | 3.31 | 0.0052 | 41.7 | 970 | 22 | – | – | – | – | –
N#C[C@@H]1CCCN1C(=O)CN1CC[C@@H](Nc2cccc3ncccc23)C1 [Example 161, (S)-1-(2-((R)-3-(quinolin-5-ylamino)pyrrolidin-1-yl)acetyl)pyrrolidine-2-carbonitrile] | – | – | – | – | – | 5.45 | 0.0014 | 25.4 | 4250 | 41.5

Now from value to compound:

IC50 [1] [µM] | IC50 [2, 6] [µM] | IC50 [3, 7] [µM] | IC50 [4, 6] [nM] | IC50 [5, 8] [µM] | IC50 ([1]; recombinant human DPP7) [µM] | IC50 ([2]; recombinant human FAP, substrate Z-Gly-Pro-AMC) [µM] | IC50 ([3]; recombinant human DPP9) [µM] | IC50 ([4]; recombinant human PREP) [nM] | IC50 ([5]; recombinant human DPP8) [µM] | Compound
3.7 | 0.0248 | ≥ 100 | 7970 | ≥ 100 | – | – | – | – | – | CN(c1cnc2ccccc2c1)[C@@H]1CCN(CC(=O)N2CCC[C@H]2C#N)C1 [Example 138, (2S)-1-[2-[(3R)-3-[methyl(3-quinolyl)amino]pyrrolidin-1-yl]acetyl]pyrrolidine-2-carbonitrile]
13 | 0.0167 | 89 | 5020 | ≥ 100 | – | – | – | – | – | CN(c1cccc2ncccc12)[C@@H]1CCN(CC(=O)N2CCC[C@H]2C#N)C1 [Example 139, (2S)-1-[2-[(3R)-3-[methyl(5-quinolyl)amino]pyrrolidin-1-yl]acetyl]pyrrolidine-2-carbonitrile]
1.4 | 0.0157 | 32.6 | 4260 | ≥ 100 | – | – | – | – | – | CN(c1ccc2ncccc2c1)[C@@H]1CCN(CC(=O)N2CCC[C@H]2C#N)C1 [Example 140, (2S)-1-[2-[(3R)-3-[methyl(6-quinolyl)amino]pyrrolidin-1-yl]acetyl]pyrrolidine-2-carbonitrile]
4.99 | 0.0026 | 71 | 4510 | ≥ 100 | – | – | – | – | – | CN(c1cnc2ccccc2c1)[C@H]1CCN(CC(=O)N2CCC[C@H]2C#N)C1 [Example 142, (2S)-1-[2-[(3S)-3-[methyl(3-quinolyl)amino]pyrrolidin-1-yl]acetyl]pyrrolidine-2-carbonitrile]
19.3 | 0.006 | 23.8 | 3360 | 85 | – | – | – | – | – | CN(c1cccc2ncccc12)[C@H]1CCN(CC(=O)N2CCC[C@H]2C#N)C1 [Example 144, (2S)-1-[2-[(3S)-3-[methyl(5-quinolyl)amino]pyrrolidin-1-yl]acetyl]pyrrolidine-2-carbonitrile]
2.03 | 0.0027 | 16.8 | 2690 | 19.1 | – | – | – | – | – | CN(c1ccc2ncccc2c1)[C@H]1CCN(CC(=O)N2CCC[C@H]2C#N)C1 [Example 145, (2S)-1-[2-[(3S)-3-[methyl(6-quinolyl)amino]pyrrolidin-1-yl]acetyl]pyrrolidine-2-carbonitrile]
0.916 | 0.0066 | ≥ 100 | 4590 | ≥ 100 | – | – | – | – | – | CN(c1ccc2cccnc2c1)[C@H]1CCN(CC(=O)N2CCC[C@H]2C#N)C1 [Example 146, (2S)-1-[2-[(3S)-3-[methyl(7-quinolyl)amino]pyrrolidin-1-yl]acetyl]pyrrolidine-2-carbonitrile]
10.8 | 0.0073 | 29.3 | 3810 | 86.6 | – | – | – | – | – | CN(c1cccc2cnccc12)[C@H]1CCN(CC(=O)N2CCC[C@H]2C#N)C1 [Example 148, (2S)-1-[2-[(3S)-3-[5-isoquinolyl(methyl)amino]pyrrolidin-1-yl]acetyl]pyrrolidine-2-carbonitrile]
